PubChem BioAssay (NCI)
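Test compounds were applied to cells in 96-well plates for 48 hours at 5 doses. GI50 is the concentration that inhibits growth by half. TGI: total growth inhibition.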

How the values were obtained:
Assay in all cases: growth of human tumour cells (NCI), 48 h
OVCAR-5 ovarian = tested on: OVCAR-5 ovarian
SF-268 CNS = tested on: SF-268 CNS
SN12C renal = tested on: SN12C renal
T-47D breast = tested on: T-47D breast
NCI-H460 lung = tested on: NCI-H460 lung
BT-549 breast = tested on: BT-549 breast
SNB-19 CNS = tested on: SNB-19 CNS
UACC-62 melanoma = tested on: UACC-62 melanoma
SK-OV-3 ovarian = tested on: SK-OV-3 ovarian
OVCAR-3 ovarian = tested on: OVCAR-3 ovarian
786-0 renal = tested on: 786-0 renal
M14 melanoma = tested on: M14 melanoma
LOX IMVI melanoma = tested on: LOX IMVI melanoma
HOP-92 NSCLC = tested on: HOP-92 NSCLC
SK-MEL-2 melanoma = tested on: SK-MEL-2 melanoma
OVCAR-4 ovarian = tested on: OVCAR-4 ovarian
HCC-2998 colon = tested on: HCC-2998 colon
SK-MEL-5 melanoma = tested on: SK-MEL-5 melanoma
DU-145 prostate = tested on: DU-145 prostate
HL-60(TB) leukemia = tested on: HL-60(TB) leukemia
K-562 leukemia = tested on: K-562 leukemia
PC-3 prostate = tested on: PC-3 prostate
SR leukemia = tested on: SR leukemia
MOLT-4 leukemia = tested on: MOLT-4 leukemia
OVCAR-8 ovarian = tested on: OVCAR-8 ovarian
NCI-H23 lung = tested on: NCI-H23 lung
U251 CNS = tested on: U251 CNS
HCT-15 colon = tested on: HCT-15 colon
SW-620 colon = tested on: SW-620 colon
ACHN renal = tested on: ACHN renal
SNB-75 CNS = tested on: SNB-75 CNS
RXF 393 renal = tested on: RXF 393 renal
MDA-MB-435 = tested on: MDA-MB-435
RPMI-8226 leukemia = tested on: RPMI-8226 leukemia
SF-539 CNS = tested on: SF-539 CNS
MCF7 breast = tested on: MCF7 breast
SK-MEL-28 melanoma = tested on: SK-MEL-28 melanoma
HOP-62 NSCLC = tested on: HOP-62 NSCLC
MALME-3M melanoma = tested on: MALME-3M melanoma
NCI-H226 lung = tested on: NCI-H226 lung
HT29 colon = tested on: HT29 colon
TK-10 renal = tested on: TK-10 renal
HCT-116 colon = tested on: HCT-116 colon
HS 578T breast = tested on: HS 578T breast
NCI/ADR-RES ovarian = tested on: NCI/ADR-RES ovarian
A549 NSCLC = tested on: A549 NSCLC
COLO 205 colon = tested on: COLO 205 colon
UO-31 renal = tested on: UO-31 renal
A498 renal = tested on: A498 renal
CCRF-CEM leukemia = tested on: CCRF-CEM leukemia
UACC-257 melanoma = tested on: UACC-257 melanoma
MDA-MB-231 breast = tested on: MDA-MB-231 breast
IGROV1 ovarian = tested on: IGROV1 ovarian
CAKI-1 renal = tested on: CAKI-1 renal
NCI-H522 lung = tested on: NCI-H522 lung
KM12 colon = tested on: KM12 colon
SF-295 CNS = tested on: SF-295 CNS

CSc1nc(O)c(/C=C2\C=Nc3ccccc32)[nH]1
TGI (OVCAR-5 ovarian): > 100 µM
TGI (SF-268 CNS): > 100 µM
TGI (SN12C renal): > 100 µM
TGI (T-47D breast): > 100 µM
TGI (NCI-H460 lung): > 100 µM
TGI (BT-549 breast): > 100 µM
TGI (SNB-19 CNS): > 100 µM
TGI (UACC-62 melanoma): > 100 µM
TGI (SK-OV-3 ovarian): > 100 µM
TGI (OVCAR-3 ovarian): > 100 µM
TGI (786-0 renal): > 100 µM
TGI (M14 melanoma): > 100 µM
TGI (LOX IMVI melanoma): > 100 µM
TGI (HOP-92 NSCLC): > 100 µM
TGI (SK-MEL-2 melanoma): > 100 µM
TGI (OVCAR-4 ovarian): > 100 µM
TGI (HCC-2998 colon): 90.6 µM
TGI (SK-MEL-5 melanoma): > 100 µM
TGI (DU-145 prostate): > 100 µM
TGI (HL-60(TB) leukemia): 94.1 µM
TGI (K-562 leukemia): > 100 µM
TGI (PC-3 prostate): > 100 µM
TGI (SR leukemia): > 100 µM
TGI (MOLT-4 leukemia): > 100 µM
TGI (OVCAR-8 ovarian): > 100 µM
TGI (NCI-H23 lung): > 100 µM
TGI (U251 CNS): > 100 µM
TGI (HCT-15 colon): > 100 µM
TGI (SW-620 colon): > 100 µM
TGI (ACHN renal): > 100 µM
TGI (SNB-75 CNS): > 100 µM
TGI (RXF 393 renal): > 100 µM
TGI (MDA-MB-435): > 100 µM
TGI (RPMI-8226 leukemia): > 100 µM
TGI (SF-539 CNS): > 100 µM
TGI (MCF7 breast): > 100 µM
TGI (SK-MEL-28 melanoma): > 100 µM
TGI (HOP-62 NSCLC): > 100 µM
TGI (MALME-3M melanoma): > 100 µM
TGI (NCI-H226 lung): > 100 µM
TGI (HT29 colon): > 100 µM
TGI (TK-10 renal): > 100 µM
TGI (HCT-116 colon): > 100 µM
TGI (HS 578T breast): > 100 µM
TGI (NCI/ADR-RES ovarian): > 100 µM
TGI (A549 NSCLC): > 100 µM
TGI (COLO 205 colon): > 100 µM
TGI (UO-31 renal): > 100 µM
TGI (A498 renal): > 100 µM
TGI (CCRF-CEM leukemia): > 100 µM
TGI (UACC-257 melanoma): > 100 µM
TGI (MDA-MB-231 breast): > 100 µM
TGI (IGROV1 ovarian): > 100 µM

O=C(NC1CCN(Cc2ccccc2)CC1)c1cc(C(=O)NC2CCN(Cc3ccccc3)CC2)cc(C(=O)NC2CCN(Cc3ccccc3)CC2)c1
GI50 (OVCAR-5 ovarian): 6.83 µM
TGI (OVCAR-5 ovarian): 13.7 µM
GI50 (SF-268 CNS): 8.25 µM
TGI (SF-268 CNS): 18.8 µM
GI50 (SN12C renal): 15.6 µM
TGI (SN12C renal): > 50 µM
GI50 (CAKI-1 renal): > 50 µM
TGI (CAKI-1 renal): > 50 µM
GI50 (T-47D breast): 4.56 µM
TGI (T-47D breast): 14.3 µM
GI50 (NCI-H460 lung): 8.07 µM
TGI (NCI-H460 lung): 16.9 µM
GI50 (NCI-H522 lung): 2.03 µM
TGI (NCI-H522 lung): 10.1 µM
GI50 (BT-549 breast): 2.01 µM
TGI (BT-549 breast): 11.4 µM
GI50 (SNB-19 CNS): 8.61 µM
TGI (SNB-19 CNS): 17.6 µM
GI50 (UACC-62 melanoma): 7.71 µM
TGI (UACC-62 melanoma): 15.2 µM
GI50 (SK-OV-3 ovarian): 8.27 µM
TGI (SK-OV-3 ovarian): 16.1 µM
GI50 (OVCAR-3 ovarian): 10.7 µM
TGI (OVCAR-3 ovarian): 44.6 µM
GI50 (786-0 renal): 14.8 µM
TGI (786-0 renal): > 50 µM
GI50 (LOX IMVI melanoma): 1.74 µM
TGI (LOX IMVI melanoma): 6.94 µM
GI50 (HOP-92 NSCLC): 5.55 µM
TGI (HOP-92 NSCLC): 12.3 µM
GI50 (SK-MEL-2 melanoma): 9.02 µM
TGI (SK-MEL-2 melanoma): 16.9 µM
GI50 (OVCAR-4 ovarian): 2.43 µM
TGI (OVCAR-4 ovarian): 10.2 µM
GI50 (HCC-2998 colon): 7.37 µM
TGI (HCC-2998 colon): 16.6 µM
GI50 (SK-MEL-5 melanoma): 7.9 µM
TGI (SK-MEL-5 melanoma): 16.9 µM
GI50 (DU-145 prostate): 18.2 µM
TGI (DU-145 prostate): > 50 µM
GI50 (HL-60(TB) leukemia): 15.1 µM
TGI (HL-60(TB) leukemia): > 50 µM
GI50 (K-562 leukemia): 2 µM
TGI (K-562 leukemia): > 50 µM
GI50 (PC-3 prostate): 7.73 µM
TGI (PC-3 prostate): 19.5 µM
GI50 (SR leukemia): 8.74 µM
TGI (SR leukemia): 26.2 µM
GI50 (MOLT-4 leukemia): 1.22 µM
TGI (MOLT-4 leukemia): 3.16 µM
GI50 (KM12 colon): 3.37 µM
TGI (KM12 colon): 12.1 µM
GI50 (OVCAR-8 ovarian): 12.7 µM
TGI (OVCAR-8 ovarian): 43.4 µM
GI50 (NCI-H23 lung): 7.78 µM
TGI (NCI-H23 lung): 15.7 µM
GI50 (U251 CNS): 1.52 µM
TGI (U251 CNS): 5.66 µM
GI50 (HCT-15 colon): > 50 µM
TGI (HCT-15 colon): > 50 µM
GI50 (SW-620 colon): 3.86 µM
TGI (SW-620 colon): 13 µM
GI50 (ACHN renal): > 50 µM
TGI (ACHN renal): > 50 µM
GI50 (SNB-75 CNS): 1.48 µM
TGI (SNB-75 CNS): 7.42 µM
GI50 (RXF 393 renal): 2.16 µM
TGI (RXF 393 renal): 10.2 µM
GI50 (MDA-MB-435): 0.923 µM
TGI (MDA-MB-435): 1.85 µM
GI50 (RPMI-8226 leukemia): 5.52 µM
TGI (RPMI-8226 leukemia): 20.8 µM
GI50 (SF-539 CNS): 0.865 µM
TGI (SF-539 CNS): 1.62 µM
GI50 (MCF7 breast): 0.946 µM
TGI (MCF7 breast): 1.85 µM
GI50 (SF-295 CNS): 6.76 µM
TGI (SF-295 CNS): 15.6 µM
GI50 (SK-MEL-28 melanoma): 2.81 µM
TGI (SK-MEL-28 melanoma): 9.5 µM
GI50 (HOP-62 NSCLC): 9.33 µM
TGI (HOP-62 NSCLC): 19.7 µM
GI50 (MALME-3M melanoma): 1.12 µM
TGI (MALME-3M melanoma): 2.52 µM
GI50 (NCI-H226 lung): 14.7 µM
TGI (NCI-H226 lung): > 50 µM
GI50 (HT29 colon): 1.3 µM
TGI (HT29 colon): 4.17 µM
GI50 (TK-10 renal): 18.3 µM
TGI (TK-10 renal): > 50 µM
GI50 (HCT-116 colon): 3.51 µM
TGI (HCT-116 colon): 14 µM
GI50 (HS 578T breast): 7.26 µM
TGI (HS 578T breast): 16.9 µM
GI50 (NCI/ADR-RES ovarian): > 50 µM
TGI (NCI/ADR-RES ovarian): > 50 µM
GI50 (A549 NSCLC): 6.68 µM
TGI (A549 NSCLC): 15.4 µM
GI50 (COLO 205 colon): 3.62 µM
TGI (COLO 205 colon): 10.6 µM
GI50 (UO-31 renal): > 50 µM
TGI (UO-31 renal): > 50 µM
GI50 (CCRF-CEM leukemia): 1.75 µM
TGI (CCRF-CEM leukemia): 5.17 µM
GI50 (UACC-257 melanoma): 8.08 µM
TGI (UACC-257 melanoma): 16.5 µM
GI50 (MDA-MB-231 breast): 2.57 µM
TGI (MDA-MB-231 breast): 11.6 µM
GI50 (IGROV1 ovarian): 25.2 µM
TGI (IGROV1 ovarian): > 50 µM
